Source: article PMC11436104 (Toxins, 2024)
Values joined by “and” are separate entries in the source; they are usually repeats but may differ in a detail not shown here. Equal values may be shown once. Read-outs that look alike come from different tables or passages of the source. *1 amine or outer side, *2 acyl side, *3 side chain or, on linkers, in order; H or OH if unused. Where a SMILES comes first, the peptide text is derived from it. Bridges are numbered along the chain shown (N, C = ends). [ ]: non-standard residue; d: D form. Adda = CO[C@@H](Cc1ccccc1)[C@@H](C)/C=C(C)/C=C/[C@H](N[*:1])[C@H](C)C(=O)[*:2]; dAsp(3S-Me) = C[C@H](C(=O)[*:3])[C@@H](N[*:1])C(=O)[*:2]; d(γGlu) = O=C(O)[C@@H](CCC(=O)[*:2])N[*:1]; hTyr = N[C@@H](CCc1ccc(O)cc1)C(=O)O; NMeA = CN[C@@H](C)C(=O)O; NMeDha = C=C(NC)C(=O)O; CO = O=C([*:1])[*:2]

How the values were obtained:
ACTB = test: Gene expression by quantitative real-time PCR in U-87MG cells; type: cell-based, human; settings: 24 h, relative to non-treated control
Method: (§1) Cells were seeded onto 6-well plates, left to attach for 16 h, and treated with each non-hCCP separately (0.1–10 µM) and the hepatotoxic MC-LR (0.01–1 µM) for 24 h at 37 °C in the CO2 incubator. The total RNA from the cells (0.5–1.0 × 10^6 cells) was isolated using the TRIzol reagent (Invitrogen), and the cDNA was synthesized using 1 μg total RNA with cDNA high-capacity archive kits (Applied Biosystems, Foster City, CA, USA), according to the manufacturer’s protocol.
(§2) The expression levels of TUBA1A, ACTB, NES, and GFAP were quantified using quantitative real-time PCR (ABI 7900 HT Sequence Detection System; Applied Biosystems). TaqMan Universal PCR Master Mix and the following TaqMan Gene Expression Assays were used: TUBA1A: tubulin, alpha 1a, Hs00362387_m1; ACTB: actin, beta, Hs99999903_m1; NES, nestin, Hs00707120_s1; and GFAP, glial fibrillary acidic protein, and Hs00157674_m1 (all from Applied Biosystems). Amplification of a glyceraldehyde 3-phosphate dehydrogenase probe GAPDH (Human Endogenous Controls, Cat. # 4310884E; Applied Biosystems) was performed as an internal control. The conditions for the quantitative real-time PCR were as follows: 50 °C for 2 min, 95 °C for 10 min, 40 cycles of 95 °C for 15 s, and 60 °C for 1 min.
(§3) The data obtained from the TaqMan Gene Expression Assays were analyzed using the ΔΔCt algorithm. Two replicates per concentration and three independent experiments were performed. The statistical significance between the controls and the treated groups was determined using two-tailed Student’s t-tests, where p < 0.05 was statistically significant. In addition, the relative expression was normalized to the housekeeping gene GAPDH (relative quantification), with at least three sample concentrations used for each gene in both untreated cell lines.

GFAP = test: as above; type: cell-based, human; settings: 24 h, relative to non-treated control
Method: as §1, §2, §3

NES = test: as above; type: cell-based, human
Method: as §1, §2, §3

TUBA1A = test: as above; type: cell-based, human
Method: as §1, §2, §3

[1] = target: T1, Ser/Thr protein phosphatase type-1 (PP1; α isoform catalytic subunit) (Oryctolagus cuniculus, UniProt P62139); test: Colorimetric protein phosphatase inhibition assay, p-nitrophenyl phosphate substrate; type: biochemical, rabbit
T1 construct: purchased Sigma 539493; host or cells: Escherichia coli
T1 sequence (P62139 whole entry, canonical isoform): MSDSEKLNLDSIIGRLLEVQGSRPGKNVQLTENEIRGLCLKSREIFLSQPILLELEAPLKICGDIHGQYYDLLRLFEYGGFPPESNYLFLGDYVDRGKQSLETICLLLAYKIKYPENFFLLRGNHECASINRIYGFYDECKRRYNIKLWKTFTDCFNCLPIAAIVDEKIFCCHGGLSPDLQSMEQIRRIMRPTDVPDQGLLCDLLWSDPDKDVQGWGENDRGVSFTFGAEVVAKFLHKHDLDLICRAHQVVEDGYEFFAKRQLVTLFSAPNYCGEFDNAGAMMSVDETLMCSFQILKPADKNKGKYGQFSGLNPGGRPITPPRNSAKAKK
Method: (§4) The inhibition of Ser/Thr protein phosphatases by the CCPs was measured using the colorimetric inhibition assay described by An and Carmichael and Gkelis et al., with some modifications. […] Enzymes, PP1 and PP2A, were diluted in reaction buffer #1 (50 mM Tris-HCl, 1.0 g/L bovine serum albumin, 1.0 mM MnCl2, 2.0 mM dithiothreitol, pH 7.4), and p-nitrophenyl phosphate was prepared in substrate buffer (0.1 M glycine, pH 10.4, 1 mM MgCl2, 1 mM ZnCl2). The assay was performed by the addition of each CCP (as a potential inhibitor; final concentrations, 0.1, 1, 10, and 100 µM) to the enzyme solution (i.e., PP1 and PP2A; final concentrations, 1 U/well and 0.01 U/well, respectively, where 1 U hydrolyzes 1 nmole of substrate per minute at pH 7.4 at 30 °C). After a few seconds of gentle shaking, the microplate was kept at room temperature for 5 min, followed by the addition of reaction buffer #2 (50 mM Tris-HCl, 0.5 g/L bovine serum albumin, 0.2 mM MnCl2, 20 mM MgCl2, and pH 8.1) for PP1, or reaction buffer #1 for PP2A. The reactions were started by the addition of p-nitrophenyl phosphate (final concentrations, 15 mM for PP1 and 10 mM for PP2A) and were carried out for 120 min at 37 °C. The hydrolysis of p-nitrophenyl phosphate to […] was recorded at 405 nm using a microplate reader (Tecan, Austria). The inhibition percentages (X) were calculated from the absorbances of the samples after incubation for 30 min, as according to Equation (1):X (%) = (APP − AS)/APP × 100,(1) where APP is the absorbance of the control sample (i.e., enzyme only), and AS is the absorbance of the test sample (i.e., enzyme with potential inhibitor). […] All measurements were repeated a minimum of three independent times, with five technical replicates per experiment. IC50 values are expressed as means ± SD.

[2] = target: T2, Ser/Thr protein phosphatase type-2A (PP2A) (Bos taurus, UniProt P67774); test: as above; type: biochemical, bovine
T2 construct: PP2A; from bovine kidney; purchased Sigma P1868; host or cells: bovine kidney (tissue-purified)
T2 sequence (P67774 whole entry): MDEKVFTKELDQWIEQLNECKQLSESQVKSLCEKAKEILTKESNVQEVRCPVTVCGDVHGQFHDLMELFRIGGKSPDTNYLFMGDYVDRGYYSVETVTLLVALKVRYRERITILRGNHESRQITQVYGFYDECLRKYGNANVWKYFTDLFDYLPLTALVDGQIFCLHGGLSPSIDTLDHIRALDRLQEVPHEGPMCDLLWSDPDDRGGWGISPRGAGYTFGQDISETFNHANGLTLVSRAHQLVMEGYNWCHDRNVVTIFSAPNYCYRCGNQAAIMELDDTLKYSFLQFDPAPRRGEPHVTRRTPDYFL
Method: as §4

[3] = U-87MG, 0.1 µM CCP, 24 h, relative to non-treated control
[4] = U-87MG, 1 µM CCP, 24 h, relative to non-treated control
[5] = U-87MG, 10 µM CCP, 24 h, relative to non-treated control
[6] = means ± SD, p-nitrophenyl phosphate 15 mM
[7] = means ± SD, p-nitrophenyl phosphate 10 mM

Compound	Changes in gene expression of ACTB (ACTB; 0.1 µM CCP)	Changes in gene expression of ACTB (ACTB; 1 µM CCP)	Changes in gene expression of ACTB (ACTB; 10 µM CCP)	Changes in gene expression of GFAP (GFAP; 0.1 µM CCP)	Changes in gene expression of GFAP (GFAP; 1 µM CCP)	Changes in gene expression of GFAP (GFAP; 10 µM CCP)	Changes in gene expression of NES (NES; [3])	Changes in gene expression of NES (NES; [4])	Changes in gene expression of NES (NES; [5])	Changes in gene expression of TUBA1A (TUBA1A; [3])	Changes in gene expression of TUBA1A (TUBA1A; [4])	Changes in gene expression of TUBA1A (TUBA1A; [5])	IC50 [1, 6] [µM]	IC50 [2, 7] [µM]	Changes in gene expression of NES (NES)	Changes in gene expression of TUBA1A (TUBA1A)	IC50 [1] [µM]	IC50 [2] [µM]
CC[C@H](C)[C@@H]1NC(=O)[C@H](Cc2ccc(OC)cc2)N(C)C(=O)[C@H]([C@@H](C)O)N2C(=O)[C@H](CC[C@H]2O)NC(=O)[C@H](CC(C)C)NC(=O)[C@@H](NC(=O)[C@H](CCC(N)=O)NC(=O)[C@H](CCc2ccc(O)cc2)NC(=O)[C@@H](O)CO)[C@@H](C)OC1=O	1.015 ± 0.057	1.051 ± 0.185	1.147 ± 0.105	1.107 ± 0.214	1.283 ± 0.185	1.016 ± 0.046	1.003 ± 0.164	1.069 ± 0.105	1.240 ± 0.041	1.124 ± 0.050	1.094 ± 0.172	1.171 ± 0.049	132 ± 87.5	18.2 ± 15.7				
C=C1C(=O)N[C@H](C)C(=O)N[C@@H](CC(C)C)C(=O)N[C@@H](C(=O)O)[C@H](C)C(=O)N[C@@H](CCCNC(=N)N)C(=O)N[C@@H](/C=C/C(C)=C/[C@H](C)[C@H](Cc2ccccc2)OC)[C@H](C)C(=O)N[C@@H](C(=O)O)CCC(=O)N1C [MC-LR, Microcystin-LR, reference compound] (R[Adda][d(γGlu)][NMeDha][dA]L[dAsp(3S-Me)]-OH; lactam N-7)															1.030 ± 0.105 and 0.877 ± 0.148	1.031 ± 0.064 and 0.983 ± 0.099	0.005 ± 0.0016	4.8e-05 ± 1e-05
CC(C)[C@@H]1NC(=O)[C@H](NC(=O)N[C@@H](CCCNC(=N)N)C(=O)O)CCCCNC(=O)[C@H](Cc2ccccc2)NC(=O)[C@H](C)N(C)C(=O)[C@H](CCc2ccc(O)cc2)NC1=O [anabaenopeptin B] ({Arg-CO}-[dK]V[hTyr][NMeA]F; lactam 1-C)	0.998 ± 0.070	1.039 ± 0.070	1.122 ± 0.033	1.088 ± 0.390		1.175 ± 0.148	0.948 ± 0.143	0.992 ± 0.085	0.931 ± 0.054	1.131 ± 0.031	1.098 ± 0.192	1.429 ± 0.068	9.5 ± 0.9	12.3 ± 6.1				
CC[C@H](C)[C@@H]1NC(=O)[C@H](NC(=O)N[C@@H](CCCNC(=N)N)C(=O)O)CCCCNC(=O)[C@H](Cc2ccccc2)NC(=O)[C@H](C)N(C)C(=O)[C@H](CCc2ccc(O)cc2)NC1=O [anabaenopeptin F] ({Arg-CO}-[dK]I[hTyr][NMeA]F; lactam 1-C)	0.935 ± 0.118	1.084 ± 0.138	1.046 ± 0.130	1.002 ± 0.087	1.096 ± 0.211	1.191 ± 0.435	1.040 ± 0.105	1.081 ± 0.056	0.886 ± 0.037	1.016 ± 0.098	1.023 ± 0.160	1.354 ± 0.126	28.2 ± 3.4	1 ± 0.2				
